Test results as given in patent publication US9624245B2, “Macrocyclic compounds as HCV entry inhibitors” (priority 2013, dated 2017).
Where two headings read alike, the source gives them in different places.

Test system: HCV pseudoparticles, genotype 1a HCV E1 and E2 envelope (H77C isolate)
Assay: HCV pseudoparticle infection assay (luciferase reporter, Huh7 cells)
Format: cell-based, HCV genotype 1a (H77C)
Conditions: Hepatitis C virus, Huh-7, 48 h
[1] = read-out: EC50 (nM) 1a (H77C), HCV pseudoparticle entry into Huh7 cells, luciferase measured 2 days after infection, average of duplicates
[2] = read-out: EC50 (nM) 1a (H77C), class symbol, HCV pseudoparticle entry into Huh7 cells, luciferase measured 2 days after infection

Row | SMILES | EC50 [1] [nM] | EC50 [2] [nM]
1 | O=C1c2ccc(cc2)Nc2nc(nc(OCC(F)(F)F)n2)NCc2ccc(cc2)OCCCN2CCC3(CCN1C3)C2 (stereo not drawn) [Example 1001] | 160 | 10 to 1000
2 | O=C1c2ccc(cc2)Nc2nc(nc(OCC(F)(F)F)n2)NCc2ccc(cc2)OCCCN2CCCNCCCN1CCC2 [Example 1002] | 5.32 | 0.01 to 10
3 | C=C1CNCC2CN(C2)C(=O)c2ccc(cc2)Nc2nc(nc(OCC(F)(F)F)n2)NCc2ccc(cc2)OC1 [Example 2001] |  | 0.01 to 10
4 | C=C1COc2ccc(cc2)CNc2nc(nc(OCC(F)(F)F)n2)Nc2ccc(cc2)C(=O)N2CCCN(CC2)C1 [Example 2002] |  | 10 to 1000
5 | C=C1COc2ccc(cc2)CNc2nc(nc(OCC(F)(F)F)n2)Nc2ccc(cc2)C(=O)N2CC3(CN(C1)C3)C2 [Example 2003] | 3.08 | 0.01 to 10
6 | C=C1COc2ccc(cc2)CNc2nc(nc(OCC(F)(F)F)n2)Nc2ccc(cc2)C(=O)N2CC3CN(C1)CC3C2 [Example 2004] |  | 10 to 1000
7 | C[C@H]1CNC2C3CN(CC32)C(=O)c2ccc(cc2)Nc2nc(nc(OCC(F)(F)F)n2)NCc2ccc(cc2)OC1 [Example 3001] |  | 10 to 1000
8 | C[C@@H]1COc2ccc(cc2)CNc2nc(nc(OCC(F)(F)F)n2)Nc2ccc(cc2)C(=O)N2CC3CCN(CC3C2)C1 (stereo partly drawn) [Example 3002] | 116 | 10 to 1000
9 | C[C@@H]1COc2ccc(cc2)CNc2nc(nc(OCC(F)(F)F)n2)Nc2ccc(cc2)C(=O)N2CC3(C)CN(C1)CC(C)(C2)C3=O [Example 3003] | 34.3 | 10 to 1000
10 | CC1(C)CNC(=O)C(=O)Nc2ccc(cc2)OCCCCOc2ccc(cc2)CNc2nc(nc(OCC(F)(F)F)n2)Nc2ccc(cc2)C(=O)NC1 [Example 4001] |  | 10 to 1000
11 | CC1(C)CNC(=O)C(=O)Nc2ccc(cc2)OCCCOc2ccc(cc2)CNc2nc(nc(OCC(F)(F)F)n2)Nc2ccc(cc2)C(=O)NC1 [Example 4002] |  | 0.01 to 10
12 | CC1(C)CNC(=O)C(=O)Nc2ccc(cc2)OCCOc2ccc(cc2)CNc2nc(nc(OCC(F)(F)F)n2)Nc2ccc(cc2)C(=O)NC1 [Example 4003] | 23.6 | 10 to 1000
13 | CC1(C)CNC(=O)C(=O)Nc2ccc(cc2)OC/C=C/COc2ccc(cc2)CNc2nc(nc(OCC(F)(F)F)n2)Nc2ccc(cc2)C(=O)NC1 [Example 4004] |  | 10 to 1000
14 | CC1(C)CNC(=O)C(=O)Nc2ccc(cc2)OC/C=C\COc2ccc(cc2)CNc2nc(nc(OCC(F)(F)F)n2)Nc2ccc(cc2)C(=O)NC1 [Example 4005] |  | 10 to 1000
15 | CC1(C)CNCC2(COC2)COc2ccc(cc2)CNc2nc(nc(OCC(F)(F)F)n2)Nc2ccc(cc2)C(=O)NC1 [Example 5001] | 0.796 | 0.01 to 10
16 | O=C1NCC2(CNCCCOc3ccc(cc3)CNc3nc(nc(OCC(F)(F)F)n3)Nc3ccc1cc3)COC2 [Example 6001] |  | 0.01 to 10
17 | C[C@H]1CNCC2(CNC(=O)c3ccc(cc3)Nc3nc(nc(OCC(F)(F)F)n3)NCc3ccc(cc3)OC1)COC2 [Example 6002] |  | 10 to 1000
18 | O=C1NCCCNCC2(COC2)COc2ccc(cc2)CNc2nc(nc(OCC(F)(F)F)n2)Nc2ccc1cc2 [Example 6003] |  | 0.01 to 10
19 | C[C@@H]1CNCC2(CNC(=O)c3ccc(cc3)Nc3nc(nc(OCC(F)(F)F)n3)NCc3ccc(cc3)OC1)COC2 [Example 6004] |  | 10 to 1000
20 | O=C1NCC2(CC2)CNCC2(COC2)COc2ccc(cc2)CNc2nc(nc(OCC(F)(F)F)n2)Nc2ccc1cc2 [Example 6005] |  | 0.01 to 10
